Test results reported in paper PMC12527922, “Cocaine chemogenetics blunts drug-seeking by synthetic physiology” (Nature, 2025).
Several values for one entry are separate records, joined by “and”; a condition that tells them apart may be missing. Identical values can stand only once.

How the values were obtained:
[1] = molecular target: T1, coca-GlyR (α7(L141G,G175K,Y217F)–GlyR) (Homo sapiens, UniProt P23415+P36544, G175K/L141G/Y217F); test: Membrane potential assay, coca-GlyR in HEK293; type: cell-based; conditions: coca-GlyR; for Max normalized AVG: AVG of DRs
T1 construct: expressed in transfected cells; host or cells: HEK293 (ATCC CRL-1573), pcDNA3.1

unmodified α7–5HT3 = molecular target: T2, unmodified α7–5HT3 (UniProt P23979+P36544, M226I/T225I); test: Membrane potential assay, unmodified α7–5HT3; type: cell-based, human α7 nAChR LBD, mouse 5HT3 IPD; conditions: a7-5Ht3; for Max normalized AVG: AVG of DR 1-3; for Max normalized, single replicate: relative to ACh max of the DR
T2 construct: expressed in transfected cells; host or cells: HEK293 (ATCC CRL-1573), pcDNA3.1

unmodified α7–GlyR = molecular target: T3, unmodified α7–GlyR (Homo sapiens, UniProt P23415+P36544); test: Membrane potential assay, unmodified α7–GlyR; type: cell-based; conditions: a7-GlyR
T3 construct: expressed in transfected cells; host or cells: HEK293 (ATCC CRL-1573), pcDNA3.1

[2] = tested on: coca-5HT3 in cultured hippocampal neurons; test: Current-clamp of cultured hippocampal neurons expressing coca-5HT3; type: cell-based, rat; conditions: coca-5HT3; coc (3 uM) relative to pre; unlabelled mean line
[3] = tested on: hippocampal neurons expressing GFP; test: Current-clamp of control cultured hippocampal neurons expressing GFP; type: cell-based, rat; conditions: GFP; 3 uM relative to PRE; unlabelled mean line
[4] = molecular target: coca-5HT3 (α7(L141G,G175K,Y210F,Y217F)–5HT3) (Homo sapiens, UniProt P36544, G175K/L141G/Y210F/Y217F); test: Membrane potential assay, coca-5HT3 in HEK293; conditions: coca-5HT3; for Max normalized AVG: AVG of DRs
Sequence of coca-5HT3 (α7(L141G,G175K,Y210F,Y217F)–5HT3) (P36544 23-224 L141G/G175K/Y210F/Y217F): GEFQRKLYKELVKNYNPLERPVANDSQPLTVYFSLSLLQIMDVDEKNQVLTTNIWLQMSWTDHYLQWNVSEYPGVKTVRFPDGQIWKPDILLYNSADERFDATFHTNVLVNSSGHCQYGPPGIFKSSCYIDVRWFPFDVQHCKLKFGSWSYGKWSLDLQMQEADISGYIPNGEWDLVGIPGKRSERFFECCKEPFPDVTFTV
Sequence of coca-5HT3 (α7(L141G,G175K,Y210F,Y217F)–5HT3) (P23979 242-489, further chain): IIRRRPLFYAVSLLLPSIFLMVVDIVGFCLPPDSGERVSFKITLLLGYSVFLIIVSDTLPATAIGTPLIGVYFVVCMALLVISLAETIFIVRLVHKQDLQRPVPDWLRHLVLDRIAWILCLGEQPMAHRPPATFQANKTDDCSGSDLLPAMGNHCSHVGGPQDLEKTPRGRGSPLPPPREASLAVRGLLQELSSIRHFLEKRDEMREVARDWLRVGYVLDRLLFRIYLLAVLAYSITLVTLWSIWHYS

T1 sequence (P36544+P23415 fused P36544:L141G/P36544:G175K/P36544:Y217F): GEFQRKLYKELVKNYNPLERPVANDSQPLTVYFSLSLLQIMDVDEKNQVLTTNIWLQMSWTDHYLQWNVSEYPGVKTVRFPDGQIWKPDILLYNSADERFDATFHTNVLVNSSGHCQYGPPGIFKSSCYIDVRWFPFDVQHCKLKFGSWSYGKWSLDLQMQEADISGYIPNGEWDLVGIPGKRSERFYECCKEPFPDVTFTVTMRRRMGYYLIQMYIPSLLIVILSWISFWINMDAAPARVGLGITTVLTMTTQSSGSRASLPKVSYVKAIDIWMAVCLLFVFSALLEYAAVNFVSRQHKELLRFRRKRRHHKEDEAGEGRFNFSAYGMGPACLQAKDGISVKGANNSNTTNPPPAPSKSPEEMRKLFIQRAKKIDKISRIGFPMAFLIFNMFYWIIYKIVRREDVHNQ
T2 sequence (P36544+P23979 fused P36544:T225I/P36544:M226I): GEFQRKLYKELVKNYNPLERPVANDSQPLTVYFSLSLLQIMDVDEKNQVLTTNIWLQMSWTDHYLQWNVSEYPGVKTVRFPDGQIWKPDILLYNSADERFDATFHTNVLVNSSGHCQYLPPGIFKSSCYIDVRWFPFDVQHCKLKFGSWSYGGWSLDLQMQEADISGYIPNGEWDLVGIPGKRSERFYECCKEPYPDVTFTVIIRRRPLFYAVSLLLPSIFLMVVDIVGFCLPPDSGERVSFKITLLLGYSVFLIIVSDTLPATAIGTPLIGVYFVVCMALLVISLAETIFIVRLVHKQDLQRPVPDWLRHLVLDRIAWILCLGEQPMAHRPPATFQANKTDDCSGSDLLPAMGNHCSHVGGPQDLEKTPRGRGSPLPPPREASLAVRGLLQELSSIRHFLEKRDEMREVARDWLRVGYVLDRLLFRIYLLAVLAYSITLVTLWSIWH
T3 sequence (P36544+P23415 fused): as the sequence (P36544+P23415 fused P36544:L141G/P36544:G175K/P36544:Y217F) above, with G119L, K153G, F195Y counted along it

COC(=O)[C@H]1[C@@H](OC(=O)c2ccccc2)C[C@@H]2CC[C@H]1N2C [coc]
DR response, single replicate ([1]; [coc] 0.0137174): 0.056 and 0.038 and 0.023 and 0.039 and 0.008 and 0.041 | Max normalized, single replicate ([1]; [coc] 0.0137174): 0.03823 and 0.06336 and 0.05409 and 0.0128 and 0.05758 and 0.03944 | Max normalized AVG ([1]; [coc] 0.0137174): 0.03793 | DR response, single replicate ([1]; [coc] 0.0411523): 0.06 and 0.037 and 0.017 and 0.078 and 0.025 and 0.015 and 0.049 | Max normalized, single replicate ([1]; [coc] 0.0411523): 0.03722 and 0.04683 and 0.05159 and 0.03467 and 0.024 and 0.06882 and 0.04225 | Max normalized AVG ([1]; [coc] 0.0411523): 0.04363 | DR response, single replicate ([1]; [coc] 0.123457): 0.034 (2×) and 0.037 and 0.031 and 0.077 and 0.02 and 0.024 | Max normalized, single replicate ([1]; [coc] 0.123457): 0.03722 and 0.0854 and 0.05093 and 0.02774 and 0.0384 and 0.04775 and 0.02394 | Max normalized AVG ([1]; [coc] 0.123457): 0.04448 | DR response, single replicate ([1]; [coc] 0.37037): 0.097 and 0.151 and 0.076 and 0.133 and 0.062 and 0.045 and 0.065 | Max normalized, single replicate ([1]; [coc] 0.37037): 0.1519 and 0.2094 and 0.08796 and 0.08599 and 0.072 and 0.09129 and 0.06831 | Max normalized AVG ([1]; [coc] 0.37037): 0.1095 | DR response, single replicate ([1]; [coc] 1.11111): 0.511 and 0.61 and 0.222 and 1.095 and 0.27 and 0.244 and 0.282 | Max normalized, single replicate ([1]; [coc] 1.11111): 0.6137 and 0.6116 and 0.7242 and 0.3745 and 0.3904 and 0.3961 and 0.3599 | Max normalized AVG ([1]; [coc] 1.11111): 0.4958 | DR response, single replicate ([1]; [coc] 3.33333): 1.226 and 0.859 and 0.343 and 1.133 and 0.644 and 0.538 and 0.653 | Max normalized, single replicate ([1]; [coc] 3.33333): 0.8642 and 0.9449 and 0.7493 and 0.8932 and 0.8608 and 0.9171 and 0.8634 | Max normalized AVG ([1]; [coc] 3.33333): 0.8704 | DR response, single replicate ([1]; [coc] 10): 1.42 and 0.941 and 1.448 and 0.721 and 0.62 and 0.712 | Max normalized, single replicate ([1]; [coc] 10): 0.9467 and 1 (4×) and 0.9577 and 0.992 | Max normalized AVG ([1]; [coc] 10): 0.9852 | DR response, single replicate ([1]; [coc] 30): 1.327 and 0.994 and 1.512 and 0.592 and 0.625 | Max normalized, single replicate ([1]; [coc] 30): 1 (3×) and 0.8211 and 0.9345 | Max normalized AVG ([1]; [coc] 30): 0.9511 | max (DR response of the replicate) ([1]; largest response of each DR): 1.42 and 0.994 and 0.363 and 1.512 and 0.721 and 0.625 and 0.712 | DR response, single replicate (unmodified α7–5HT3; concentration 0.0457247): 0.035 and 0.029 and 0.04 | Max normalized AVG (unmodified α7–5HT3; concentration 0.0457247): 0.03558 | Max normalized, single replicate (unmodified α7–5HT3; concentration 0.0457247): 0.02736 and 0.03711 and 0.04227 | DR response, single replicate (unmodified α7–5HT3; concentration 0.137174): 0.031 and 0.062 and 0.034 | Max normalized AVG (unmodified α7–5HT3; concentration 0.137174): 0.04249 | Max normalized, single replicate (unmodified α7–5HT3; concentration 0.137174): 0.05849 and 0.03154 and 0.03744 | DR response, single replicate (unmodified α7–5HT3; concentration 0.411523): 0.023 and 0.07 and 0.034 | Max normalized AVG (unmodified α7–5HT3; concentration 0.411523): 0.04179 | Max normalized, single replicate (unmodified α7–5HT3; concentration 0.411523): 0.06604 and 0.03154 and 0.02778 | DR response, single replicate (unmodified α7–5HT3; concentration 1.23457): 0.031 and 0.038 and 0.043 | Max normalized AVG (unmodified α7–5HT3; concentration 1.23457): 0.03773 | Max normalized, single replicate (unmodified α7–5HT3; concentration 1.23457): 0.03585 and 0.03989 and 0.03744 | DR response, single replicate (unmodified α7–5HT3; concentration 3.7037): 0.019 and 0.031 and 0.039 | Max normalized AVG (unmodified α7–5HT3; concentration 3.7037): 0.02946 | Max normalized, single replicate (unmodified α7–5HT3; concentration 3.7037): 0.02925 and 0.03618 and 0.02295 | DR response, single replicate (unmodified α7–5HT3; concentration 11.1111): 0.036 and 0.037 and 0.017 | Max normalized AVG (unmodified α7–5HT3; concentration 11.1111): 0.03138 | Max normalized, single replicate (unmodified α7–5HT3; concentration 11.1111): 0.03491 and 0.01577 and 0.04348 | DR response, single replicate (unmodified α7–5HT3; concentration 33.3333): 0.037 and 0.071 and 0.05 | Max normalized AVG (unmodified α7–5HT3; concentration 33.3333): 0.05268 | Max normalized, single replicate (unmodified α7–5HT3; concentration 33.3333): 0.06698 and 0.04638 and 0.04469 | DR response, single replicate (unmodified α7–5HT3; concentration 100): 0.055 and 0.086 and 0.089 | Max normalized AVG (unmodified α7–5HT3; concentration 100): 0.07671 | Max normalized, single replicate (unmodified α7–5HT3; concentration 100): 0.08113 and 0.08256 and 0.06643 | DR response, single replicate (unmodified α7–GlyR; concentration 0.0457247): 0.05 and 0.083 and 0.071 | DR response, single replicate (unmodified α7–GlyR; concentration 0.137174): 0.031 and 0.061 and 0.045 | DR response, single replicate (unmodified α7–GlyR; concentration 0.411523): 0.036 and 0.075 and 0.045 | DR response, single replicate (unmodified α7–GlyR; concentration 1.23457): 0.032 and 0.049 and 0.043 | DR response, single replicate (unmodified α7–GlyR; concentration 3.7037): 0.027 and 0.033 and 0.028 | DR response, single replicate (unmodified α7–GlyR; concentration 11.1111): 0.032 and 0.038 and 0.034 | DR response, single replicate (unmodified α7–GlyR; concentration 33.3333): 0.046 and 0.052 and 0.049 | DR response, single replicate (unmodified α7–GlyR; concentration 100): 0.053 and 0.079 (2×) | Rheobase Normalized, mean of cells [2]: 0.5604 | Rheobase Normalized, mean of cells [3]: 1.094 | DR response, single replicate ([4]; [coc] 0.0137174): 0.067 and 0.015 and 0.01 and 0.009 and 0.046 and 0.1 and 0.014 | Max normalized, single replicate ([4]; [coc] 0.0137174): 0.01571 and 0.04202 and 0.03502 and 0.04968 and 0.07513 and 0.01777 and 0.06549 | Max normalized AVG ([4]; [coc] 0.0137174): 0.04297 | DR response, single replicate ([4]; [coc] 0.0411523): 0.051 and 0.054 and 0.011 and 0.02 and 0.076 and 0.06 and 0.008 and 0.009 | Max normalized, single replicate ([4]; [coc] 0.0411523): 0.05654 and 0.04622 and 0.07782 and 0.08207 and 0.04508 and 0.01015 and 0.007098 and 0.04985 | Max normalized AVG ([4]; [coc] 0.0411523): 0.04686 | DR response, single replicate ([4]; [coc] 0.123457): 0.063 and 0.015 and 0.01 and 0.013 (2×) and 0.056 and 0.037 and 0.035 | Max normalized, single replicate ([4]; [coc] 0.123457): 0.01571 and 0.04202 and 0.05058 and 0.06048 and 0.0278 and 0.04442 and 0.01025 and 0.06158 | Max normalized AVG ([4]; [coc] 0.123457): 0.0391 | DR response, single replicate ([4]; [coc] 0.37037): 0.098 and 0.161 and 0.012 and 0.019 and 0.144 and 0.109 and 0.122 and 0.014 | Max normalized, single replicate ([4]; [coc] 0.37037): 0.1686 and 0.05042 and 0.07393 and 0.1555 and 0.08189 and 0.1548 and 0.01104 and 0.0958 | Max normalized AVG ([4]; [coc] 0.37037): 0.099 | DR response, single replicate ([4]; [coc] 1.11111): 0.363 and 0.54 and 0.108 and 0.033 and 0.699 and 0.66 and 0.506 and 0.355 | Max normalized, single replicate ([4]; [coc] 1.11111): 0.5654 and 0.4538 and 0.1284 and 0.7549 and 0.4959 and 0.6421 and 0.28 and 0.3548 | Max normalized AVG ([4]; [coc] 1.11111): 0.4594 | DR response, single replicate ([4]; [coc] 3.33333): 0.825 and 0.861 and 0.191 and 0.144 and 0.926 and 1.093 and 0.788 and 0.762 | Max normalized, single replicate ([4]; [coc] 3.33333): 0.9016 and 0.8025 and 0.5603 and 1 (2×) and 0.8212 and 0.6009 and 0.8065 | Max normalized AVG ([4]; [coc] 3.33333): 0.8116 | DR response, single replicate ([4]; [coc] 10): 1.023 and 0.955 and 0.229 and 0.257 and 0.908 and 1.331 and 0.736 and 1.159 | Max normalized, single replicate ([4]; [coc] 10): 1 (4×) and 0.9622 and 0.9806 and 0.934 and 0.914 | Max normalized AVG ([4]; [coc] 10): 0.9738 | DR response, single replicate ([4]; [coc] 30): 0.864 and 0.903 and 0.238 and 0.251 and 1.268 | Max normalized, single replicate ([4]; [coc] 30): 0.9456 and 1 (2×) and 0.9767 and 0.8446 | Max normalized AVG ([4]; [coc] 30): 0.9534 | max (DR response of the replicate) ([4]; largest response of each DR): 1.023 and 0.955 and 0.238 and 0.257 and 0.926 and 1.331 and 0.788 and 1.268
